From the supplement of paper PMC3770661
Where a name gives a salt, the structure may show the parent alone. ± gives the uncertainty stated by the source.

Test system: HepG2 (L1.3 5'UTR promoter firefly luciferase reporter)
Assay: L1 promoter activity (FLuc/RLuc) relative to DMSO vehicle control (% of control); higher = stronger L1 promoter activation
Description: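 HepG2 cells in 96-well plates were cotransfected with pGL4.11-L1.3 5'UTR (firefly luciferase driven by the human L1.3 5'UTR promoter) and pGL4.74 (HSV-TK Renilla luciferase internal control), then treated with compound for 6 or 24 h. FLuc/RLuc ratio was normalised to the DMSO vehicle control (% of control); concentrations where RLuc fell below 50% of control were excluded (N.D.). Mean of at least two independent experiments in duplicate or quadruplicate.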

[1] = concentration (uM unless unit written): 250, treatment time: 6 h
[2] = concentration (uM unless unit written): 5, treatment time: 6 h
[3] = concentration (uM unless unit written): 5, treatment time: 24 h
[4] = concentration (uM unless unit written): 10, treatment time: 6 h
[5] = concentration (uM unless unit written): 10, treatment time: 24 h
[6] = concentration (uM unless unit written): 20, treatment time: 6 h
[7] = concentration (uM unless unit written): 20, treatment time: 24 h
[8] = concentration (uM unless unit written): 50, treatment time: 6 h
[9] = concentration (uM unless unit written): 50, treatment time: 24 h
[10] = concentration (uM unless unit written): 100, treatment time: 6 h
[11] = concentration (uM unless unit written): 100, treatment time: 24 h
[12] = concentration (uM unless unit written): 250, treatment time: 24 h
[13] = concentration (uM unless unit written): 500, treatment time: 6 h
[14] = concentration (uM unless unit written): 500, treatment time: 24 h
[15] = concentration (uM unless unit written): 1000, treatment time: 6 h
[16] = concentration (uM unless unit written): 1000, treatment time: 24 h
[17] = concentration (uM unless unit written): 200, treatment time: 6 h

`O=C(O)c1ccccc1Nc1cccc(C(F)(F)F)c1` [Flufenamic acid] gave an L1 promoter activity (concentration (uM unless unit written): 62.5, treatment time: 6 h) of 130 ± 7.7, an L1 promoter activity (concentration (uM unless unit written): 62.5, treatment time: 24 h) of 158 ± 19 and an L1 promoter activity (concentration (uM unless unit written): 125, treatment time: 6 h) of 119 ± 14. It also gave an L1 promoter activity (concentration (uM unless unit written): 125, treatment time: 24 h) of 120 ± 20 and an L1 promoter activity [1] of 129 ± 21.

Molecule `O=c1[nH]cc(F)c(=O)[nH]1` [Fluorouracil] has an L1 promoter activity [2] of 110 ± 30, an L1 promoter activity [3] of 107 ± 18 and an L1 promoter activity [4] of 109 ± 22. For the same molecule, the L1 promoter activity [5] was 83.2 ± 4.1, the L1 promoter activity [6] was 94.5 ± 11 and the L1 promoter activity [7] was 73.4 ± 11.

Molecule `CC(C)n1c(/C=C/C(O)CC(O)CC(=O)O)c(-c2ccc(F)cc2)c2ccccc21` (stereo unspecified) [Fluvastatin] has an L1 promoter activity [2] of 126 ± 35, an L1 promoter activity [3] of 134 ± 32 and an L1 promoter activity [4] of 111 ± 32. For the same molecule, the L1 promoter activity [5] was 102 ± 23, the L1 promoter activity [6] was 99.4 ± 19 and the L1 promoter activity [7] was 109 ± 25.

With `C=C[C@@]1(C)CC(=O)[C@]2(O)[C@@]3(C)[C@@H](O)CCC(C)(C)[C@@H]3[C@H](O)[C@H](OC(C)=O)[C@@]2(C)O1` [Forskolin] the L1 promoter activity (concentration (uM unless unit written): 25, treatment time: 6 h) was 88.6 ± 4.5, the L1 promoter activity (concentration (uM unless unit written): 25, treatment time: 24 h) was 59.9 ± 9 and the L1 promoter activity [8] was 85.9 ± 4. It also gave an L1 promoter activity [9] of 59 ± 6.1, an L1 promoter activity [10] of 89.2 ± 7.9 and an L1 promoter activity [11] of 52 ± 4.8.

Molecule `NS(=O)(=O)c1cc(C(=O)O)c(NCc2ccco2)cc1Cl` [Furosemide] has an L1 promoter activity [10] of 104 ± 28, an L1 promoter activity [11] of 103 ± 24 and an L1 promoter activity [1] of 97.3 ± 11. The L1 promoter activity [12] was 96.2 ± 8.4, the L1 promoter activity [13] was 96.9 ± 5.2 and the L1 promoter activity [14] was 91.2 ± 6.5. It also gave an L1 promoter activity [15] of 89.1 ± 16 and an L1 promoter activity [16] of 60.4 ± 2.4.

Work on `Nc1nc2c(ncn2COC(CO)CO)c(=O)[nH]1` [Ganciclovir] yielded an L1 promoter activity [13] of 109 ± 17, an L1 promoter activity [14] of 98.3 ± 6.1 and an L1 promoter activity [15] of 115 ± 16. For the same molecule, the L1 promoter activity [16] was 104 ± 11.

`COc1ccccc1OCC(O)CO` (stereo unspecified) [Guaiacol glyceryl ether] gave an L1 promoter activity (concentration (uM unless unit written): 1250, treatment time: 6 h) of 123 ± 7.7, an L1 promoter activity (concentration (uM unless unit written): 1250, treatment time: 24 h) of 99.7 ± 7.2 and an L1 promoter activity (concentration (uM unless unit written): 2500, treatment time: 6 h) of 136 ± 19. The L1 promoter activity (concentration (uM unless unit written): 2500, treatment time: 24 h) was 112 ± 19, the L1 promoter activity (concentration (uM unless unit written): 5000, treatment time: 6 h) was 149 ± 13 and the L1 promoter activity (concentration (uM unless unit written): 5000, treatment time: 24 h) was 145 ± 15.

`CC(C)Cc1ccc(C(C)C(=O)O)cc1` (stereo unspecified) [Ibuprofen] gave an L1 promoter activity [1] of 118 ± 8.4, an L1 promoter activity [12] of 90.8 ± 3.5 and an L1 promoter activity [13] of 99.7 ± 9.8. The L1 promoter activity [14] was 89.6 ± 10, the L1 promoter activity [15] was 97.2 ± 8.2 and the L1 promoter activity [16] was 74.9 ± 7.6.

For `COc1ccc2c(c1)c(CC(=O)O)c(C)n2C(=O)c1ccc(Cl)cc1` [Indometacin], the L1 promoter activity [1] was 99.1 ± 10, the L1 promoter activity [12] was 83 ± 11 and the L1 promoter activity [13] was 92.6 ± 13. For the same molecule, the L1 promoter activity [14] was 59.3 ± 6.8 and the L1 promoter activity [15] was 67.2 ± 10.

Molecule `NC(=O)CI` [Iodoacetamide] has an L1 promoter activity (concentration (uM unless unit written): 0.1, treatment time: 6 h) of 97.4 ± 9, an L1 promoter activity (concentration (uM unless unit written): 0.1, treatment time: 24 h) of 103 ± 11 and an L1 promoter activity (concentration (uM unless unit written): 1, treatment time: 6 h) of 101 ± 13. For the same molecule, the L1 promoter activity (concentration (uM unless unit written): 1, treatment time: 24 h) was 106 ± 16, the L1 promoter activity [2] was 117 ± 23 and the L1 promoter activity [4] was 130 ± 27.

`C[C@H](CCC(=O)O)C[C@H](C)C[C@H](C)C(=O)/C=C(\O)[C@H](C)C[C@H](C)C/C=C/[C@@H](C)[C@@H](O)[C@@H](C)[C@@H](O)C[C@@H]1CC[C@@](C)([C@H]2CC[C@@](C)([C@@H](C)O)O2)O1` [Ionomycin] showed an L1 promoter activity [2] of 77.1 ± 5, an L1 promoter activity [3] of 79.5 ± 15 and an L1 promoter activity [4] of 60 ± 14. It also gave an L1 promoter activity [5] of 58.1 ± 11, an L1 promoter activity [6] of 60.5 ± 11 and an L1 promoter activity [7] of 36.9 ± 6.4.

Molecule `CC(=O)N1CCN(c2ccc(OCC3COC(Cn4ccnc4)(c4ccc(Cl)cc4Cl)O3)cc2)CC1` (stereo unspecified) [Ketoconazol] has an L1 promoter activity [4] of 90.8 ± 12, an L1 promoter activity [5] of 82.2 ± 16 and an L1 promoter activity [6] of 83.5 ± 11. For the same molecule, the L1 promoter activity [7] was 57.5 ± 15, the L1 promoter activity (concentration (uM unless unit written): 40, treatment time: 6 h) was 71.4 ± 9.3 and the L1 promoter activity (concentration (uM unless unit written): 40, treatment time: 24 h) was 37.2 ± 4.2.

`CN1CCC(=C2c3ccccc3CC(=O)c3sccc32)CC1` [Ketotifen fumarate salt] was tested, and the L1 promoter activity [8] was 90.4 ± 6.5, the L1 promoter activity [9] was 89.9 ± 4.6 and the L1 promoter activity [10] was 92.3 ± 7.8. The L1 promoter activity [11] was 83.7 ± 8 and the L1 promoter activity [17] was 80.3 ± 4.5.

With `O=C(O)c1nn(Cc2ccc(Cl)cc2Cl)c2ccccc12` [Lonidamine] the L1 promoter activity [8] was 105 ± 12, the L1 promoter activity [9] was 93 ± 8 and the L1 promoter activity [10] was 87.9 ± 6.3. It also gave an L1 promoter activity [11] of 105 ± 9.1, an L1 promoter activity [17] of 99.9 ± 25 and an L1 promoter activity (concentration (uM unless unit written): 200, treatment time: 24 h) of 91.6 ± 9.5.
